Measured values: patent US20090075976A1, “Association between an anti-atherothrombotic and an angiotensin-converting enzyme inhibitor” (LES LABORATOIRES SERVIER, priority 2007, published 2009)
Structures can show the parent of a compound that is named as a salt.

Key:
VCAM-1 = conditions: diabetic atheromatous Apo E−/− mice; cited from earlier work
CD rats [1] = assay: Arterial thrombosis in the rat (FeCl3-induced, aorta); assay type: in vivo
Description: The thrombosis technique used is that of Tanaka and co-workers (Eur. J. Pharmacol., 2008; 401, 413-18). CD rats (350-375 g) are anaesthetised using pentobarbital 50 mg/kg IP and are placed on a thermostatically controlled blanket. After laparotomy, the aorta is exposed. […] Some animals are treated with terutroban (compound A) in the form of the sodium salt at a dose of 0.1 mg/kg, others with perindopril (compound B) in the form of the tert-butylamine salt at a dose of 1 mg/kg, and others with terutroban in the form of the sodium salt (compound A) at a dose of 0.1 mg/kg and perindopril (compound B) in the form of the tert-butylamine salt at 1 mg/kg.

CD rats [2] = assay: Arterial pressure in the anaesthetised rat; assay type: in vivo; conditions: recorded 1 hour after treatment, controls 131±7 mmHg
Description: After anaesthesia using pentobarbital (50 mg/kg IP), the animal is placed on a thermostatically controlled blanket. The carotid artery is exposed and a catheter is introduced in order to monitor the arterial pressure with the aid of a Gould sensor connected to AcqKnowledge software. […] Some animals are treated with terutroban (compound A) in the form of the sodium salt at a dose of 0.1 mg/kg, others with perindopril (compound B) in the form of the tert-butylamine salt at a dose of 0.3 mg/kg, and others with terutroban (compound A) in the form of the sodium salt at 0.1 mg/kg and perindopril (compound B) in the form of the tert-butylamine salt at 0.3 mg/kg.

aortic VCAM-1 = assay: Expression of aortic VCAM-1 in diabetic ApoE−/− mice (real-time PCR); assay type: in vivo; conditions: 13 weeks
Description: Four groups of 9 mice deficient in apolipoprotein E (ApoE^−/−, spontaneously developing atheroma plaques in their aortas) were used in this study. At the age of 8 weeks, the mice are made diabetic by 5 intraperitoneal injections of 70 mg/kg of streptozotocin over 5 days. At the ninth week, the animals are divided into four groups: an untreated control group, a group treated with terutroban (compound A) sodium salt (1 mg/kg/day in the food), a group treated with perindopril (compound B) tert-butylamine salt (0.1 mg/kg/day in the drinking water), and a group treated with the association of terutroban (compound A) sodium salt (1 mg/kg/day in the food) and perindopril (compound B) tert-butylamine salt (0.1 mg/kg/day in the drinking water). For the expression of aortic VCAM-1, the mice are treated for 13 weeks and then sacrificed. The aortas and the right-side kidneys are removed, dissected and frozen in liquid nitrogen. The tissues are cryo-ground and total RNA is extracted using the RNeasy® micro kit (Qiagen). […] Expression of aortic VCAM-1 and expression of renal fibronectin are quantified by real-time PCR and normalised with respect to 3 reference genes: β-actin, hypoxanthine-guanine phosphoribosyl transferase (HPRT) and glyceraldehyde phosphate dehydrogenase (GAPDH). […]

renal fibronectin = assay: Expression of renal fibronectin in diabetic ApoE−/− mice (real-time PCR); assay type: in vivo; conditions: 6 weeks
Description: Four groups of 9 mice deficient in apolipoprotein E (ApoE^−/−, spontaneously developing atheroma plaques in their aortas) were used in this study. At the age of 8 weeks, the mice are made diabetic by 5 intraperitoneal injections of 70 mg/kg of streptozotocin over 5 days. At the ninth week, the animals are divided into four groups: an untreated control group, a group treated with terutroban (compound A) sodium salt (1 mg/kg/day in the food), a group treated with perindopril (compound B) tert-butylamine salt (0.1 mg/kg/day in the drinking water), and a group treated with the association of terutroban (compound A) sodium salt (1 mg/kg/day in the food) and perindopril (compound B) tert-butylamine salt (0.1 mg/kg/day in the drinking water). For the expression of renal fibronectin, the mice are treated for 6 weeks and then sacrificed after anaesthesia using isoflurane. For the expression of aortic VCAM-1, the mice are treated for 13 weeks and then sacrificed. The aortas and the right-side kidneys are removed, dissected and frozen in liquid nitrogen. […] Expression of aortic VCAM-1 and expression of renal fibronectin are quantified by real-time PCR and normalised with respect to 3 reference genes: β-actin, hypoxanthine-guanine phosphoribosyl transferase (HPRT) and glyceraldehyde phosphate dehydrogenase (GAPDH). […]

[3] = tested on: human E-selectin promoter; assay: E-selectin promoter activity (luciferase reporter) in TNF-α-induced HUVEC cells; assay type: cell-based; conditions: for Activity in cpm %/Control MEAN ± SDM: TNF-α-induced (100 U/ml); for effect on expression of the E-selectin gene: compound alone, at the concentrations tested (up to 100 μM), TNF-α
Description: The study is carried out on human endothelial cells HUVEC (Human Umbilical Vein Endothelial Cells, Clonetics Co). The cells are cultured in an EBM2 medium (Endothelial Basal Medium, Clonetics Co) supplemented with 2% FCS (Fœtal Calf Serum) and EGM2 (Endothelial Growth Medium, Clonetics Co).
An 850 bp fragment, corresponding to the human E-selectin promoter, extending from the nucleotides at positions −800 to +50 (accession no. M64485; Tamaru et al., E-selectin gene expression is induced synergistically with the coexistence of activated classic protein kinase C and signals elicited by interleukin-1β but not tumor necrosis factor-α; 1999, J. Biol. Chem, 274, 3753-3763), was amplified by PCR and sub-cloned. In a final reaction volume of 100 μl, 5 units of native Pyrococcus furiosus (Pfu) DNA polymerase (Stratagene) were placed in the presence of 1 μg of human genomic DNA (Clontech), 200 μM of dNTP (deoxynucleotide triphosphate) (Clontech) and 200 ng of primers in a medium containing the buffer specific to the enzyme. The set of primers used is as follows: […]
The PGL3/E-selectin plasmid is transfected into HUVEC cells before the fourth passage. Transfection is carried out in plates having cells at 50% confluence, depositing Lipofectin® (Invitrogen) and 3 μg of PGL3/E-selectin plasmid in each of the wells. The Lipofectin® (6 μg/ml) is previously activated for 30 minutes in an OPTI-MEM medium (GIBCO™) and then brought into contact for 15 minutes with the plasmids previously diluted with the medium. The cells are incubated for 4 hours at 37° C. in an atmosphere containing 5% CO2 and […]. The transfection medium is withdrawn and replaced overnight by an enriched culture medium in order to stabilise the cells.
Expression of the reporter genes is induced over 4 hours in an M199 medium without serum (GIBCO™). The cells are scratched and lysed in a lysis buffer (Dual-Luciferase® kit, Promega) and then held at −20° C.
The induction phase is 4 hours for the HUVEC cells in the presence of 100 U/ml of Tumour Necrosis Factor-α (TNF-α). During that induction phase, there are added different concentrations of, on the one hand: • perindoprilate (0 to 100 µM), terutroban sodium salt (0 to 100 μM), or terutroban sodium salt (30 μM)+different concentrations of perindoprilate (10, 30 and 100 μM) (Table 1) and, on the other hand: • ramiprilate (0 to 100 μM), terutroban sodium salt (0 to 100 μM), or terutroban sodium salt (10 μM)+different concentrations of ramiprilate (30 and 100 μM) (Table 2).
The E-selectin promoter activity is determined by quantification of the luciferase activity produced (Dual-Luciferase® kit, Promega). A solution of luciferin, the substrate of the firefly luciferase, is added to each well. […] The plate is incubated for 10 minutes in the dark because the luciferase activity is light-sensitive, and then a luminometer reading is started in order to quantify the photons emitted (Wallac, Perkin Elmer), the result obtained being the average cpm (counts per minute) over a period of 5 seconds.
(§1) The activity of the E-selectin promoter is measured under control conditions and in the presence of products in the induced state.
as §1

[4] = 0.1 mg/kg/day in the drinking water

SMILES	endothelial expression of the adhesion molecule VCAM-1 (VCAM-1)	weight of clot (CD rats [1]; 0.1 mg/kg, controls 17.1±1.3 mg)	arterial pressure (CD rats [2]; 0.1 mg/kg)	residual expression of the aortic VCAM-1 gene versus 100% without treatment (aortic VCAM-1; 1 mg/kg/day in the food)	expression of the renal fibronectin gene versus 100% without treatment (renal fibronectin; 1 mg/kg/day in the food)	Activity in cpm %/Control MEAN ± SDM ([3]; compound alone 10 μM)	Activity in cpm %/Control MEAN ± SDM ([3]; compound alone 30 μM)	Activity in cpm %/Control MEAN ± SDM ([3]; compound alone 100 μM)	effect on expression of the E-selectin gene [3]	weight of clot (CD rats [1]; 1 mg/kg, controls 15.6±0.7 mg)	arterial pressure (CD rats [2]; 0.3 mg/kg)	residual expression of the aortic VCAM-1 gene versus 100% without treatment (aortic VCAM-1; [4])	expression of the renal fibronectin gene versus 100% without treatment (renal fibronectin; [4])
Cc1ccc2c(c1CCC(=O)O)CC[C@@H](NS(=O)(=O)c1ccc(Cl)cc1)C2 [Compound A, sodium salt, 3-[(6R)-6-[[(4-chlorophenyl)sulphonyl]amino]-2-methyl-5,6,7,8-tetrahydronaphth-1-yl]propanoic acid]	significantly reduced	16.8 ± 1.3 mg	126±7 mmHg	88±22%	69±16%	105.8 ± 7.9%	99.5 ± 9.1%	88.8 ± 8.9%	no effect				
CCC[C@H](N[C@@H](C)C(=O)N1[C@H](C(=O)O)C[C@@H]2CCCC[C@@H]21)C(=O)O [Compound B, active metabolite, perindoprilate]						99.5 ± 7.8%	100.3 ± 9.2%	82.8 ± 11.5%	no effect				
C[C@H](N[C@@H](CCc1ccccc1)C(=O)O)C(=O)N1[C@H](C(=O)O)C[C@@H]2CCC[C@@H]21 [Compound C, active metabolite, ramiprilate]							111.1 ± 17.2%	114.6 ± 38.9%	no effect				
CCC[C@H](N[C@@H](C)C(=O)N1[C@H](C(=O)O)C[C@@H]2CCCC[C@@H]21)C(=O)OCC [perindopril]										15.2 ± 1.1 mg	120±9 mmHg	76±21%	86±9.9%
